Source: PubChem BioAssay AID248 (DTP/NCI, 2004)
“And” between values parts separate entries of the source, which are not always exact repeats. Identical values can stand only once. Inconclusive results and toxic doses are left out. Cut-off read from the data, not from the text of the source: active = T/C of 150% or more; inactive = T/C below 125%.

Tested on: L1210 leukemia ip in BDF1 mice, survival T/C
Test: NCI In Vivo Anticancer Drug Screen. Data for tumor model L1210 Leukemia (intraperitoneal) in B6D2F1 (BDF1) mice
Conditions: endpoint: mean survival time, higher = longer survival
Method in brief: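 Read-out is survival time, reported as the treated-group measurement over the vehicle-control measurement.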

[1] = dose: 100.0 mg/kg/injection, schedule: Q01DX009 (ip), vehicle: saline with Tween-80
[2] = dose: 100.0 mg/kg/injection, schedule: Q04DX002 (ip), vehicle: saline with Tween-80
[3] = dose: 200.0 mg/kg/injection, schedule: Q01DX009 (ip), vehicle: saline with Tween-80
[4] = dose: 200.0 mg/kg/injection, schedule: Q04DX002 (ip), vehicle: saline with Tween-80
[5] = dose: 400.0 mg/kg/injection, schedule: Q01DX009 (ip), vehicle: saline with Tween-80
[6] = dose: 400.0 mg/kg/injection, schedule: Q04DX002 (ip), vehicle: saline with Tween-80
[7] = dose: 100.0 mg/kg/injection, schedule: Q04DX003 (ip), vehicle: saline with Tween-80
[8] = dose: 200.0 mg/kg/injection, schedule: Q04DX003 (ip), vehicle: saline with Tween-80
[9] = dose: 400.0 mg/kg/injection, schedule: Q04DX003 (ip), vehicle: saline with Tween-80
[10] = dose: 25.0 mg/kg/injection, schedule: Q04DX003 (ip), vehicle: saline
[11] = dose: 50.0 mg/kg/injection, schedule: Q01DX009 (ip), vehicle: saline
[12] = dose: 50.0 mg/kg/injection, schedule: Q04DX003 (ip), vehicle: saline
[13] = dose: 100.0 mg/kg/injection, schedule: Q04DX003 (ip), vehicle: saline
[14] = dose: 100.0 mg/kg/injection, schedule: Q01DX009 (ip), vehicle: saline
[15] = dose: 100.0 mg/kg/injection, schedule: Q01DX001 (ip), vehicle: saline with Tween-80
[16] = dose: 200.0 mg/kg/injection, schedule: Q01DX001 (ip), vehicle: saline with Tween-80
[17] = dose: 400.0 mg/kg/injection, schedule: Q01DX001 (ip), vehicle: saline with Tween-80

Measured: T/C

C=COC(=O)c1ccccc1
inactive: [1] 98 % of control | [2] 93 % of control | [3] 98 % of control | [4] 93 % of control | [5] 95 % of control | [6] 93 % of control

O=C(O)CSCc1ccc(Cl)cc1
inactive: dose: 100.0 mg/kg/injection, schedule: Q01DX001 (ip), vehicle: acetone 95 % of control | dose: 100.0 mg/kg/injection, schedule: Q04DX003 (ip), vehicle: Klucel (hydroxypropylcellulose) (HPC) 94 % of control | dose: 200.0 mg/kg/injection, schedule: Q01DX001 (ip), vehicle: acetone 97 % of control | dose: 200.0 mg/kg/injection, schedule: Q04DX003 (ip), vehicle: Klucel (hydroxypropylcellulose) (HPC) 98 % of control | dose: 400.0 mg/kg/injection, schedule: Q01DX001 (ip), vehicle: acetone 97 % of control | dose: 400.0 mg/kg/injection, schedule: Q04DX003 (ip), vehicle: Klucel (hydroxypropylcellulose) (HPC) 98 % of control

Brc1ccc(-c2nc3ccccc3c(Br)c2Br)cc1
inactive: dose: 100.0 mg/kg/injection, schedule: Q01DX001 (ip), vehicle: saline 90 % of control | dose: 200.0 mg/kg/injection, schedule: Q01DX001 (ip), vehicle: saline 94 % of control | dose: 400.0 mg/kg/injection, schedule: Q01DX001 (ip), vehicle: saline 90 % of control

O=C(/C=C/c1cccc(Br)c1)c1ccc(Cl)cc1
inactive: dose: 50.0 mg/kg/injection, schedule: Q01DX009 (ip), vehicle: other 107 % of control | dose: 100.0 mg/kg/injection, schedule: Q01DX009 (ip), vehicle: other 92 % of control | dose: 100.0 mg/kg/injection, schedule: Q04DX003 (ip), vehicle: other 89 % of control | dose: 200.0 mg/kg/injection, schedule: Q01DX009 (ip), vehicle: other 96 % of control | dose: 200.0 mg/kg/injection, schedule: Q04DX003 (ip), vehicle: other 100 % of control

CC(C)CC(=O)OCc1ccc2c(c1)OCO2
inactive: dose: 222.0 mg/kg/injection, schedule: Q01DX Z (ip), vehicle: saline 109 % of control | dose: 333.0 mg/kg/injection, schedule: Q01DX Z (ip), vehicle: saline 102 % of control | dose: 500.0 mg/kg/injection, schedule: Q01DX Z (ip), vehicle: saline 108 % of control

CC(=O)Oc1c2ccccc2c(OC(C)=O)c2cc(/C=C/C(=O)O)ccc12
inactive: [7] 95 % of control | [8] 90 % of control | [9] 88 % of control

Cc1nc(NN)c(C(N)=O)nc1C
inactive: dose: 25.0 mg/kg/injection, schedule: Q01DX009 (ip), vehicle: saline 98 % of control | [10] 101 % of control | [11] 96 % of control | [12] 103 % of control | [13] 104 % of control

CCNC(C)(C)C(SSSC(c1ccc(Br)cc1)C(C)(C)NCC)c1ccc(Br)cc1 (stereo not drawn)
inactive: dose: 25.0 mg/kg/injection, schedule: Q01DX009 (ip), vehicle: water 96 % of control | dose: 50.0 mg/kg/injection, schedule: Q01DX009 (ip), vehicle: water 90 % of control | dose: 100.0 mg/kg/injection, schedule: Q01DX009 (ip), vehicle: water 88 % of control

CCCCNC(=O)NC(=O)C(C)(C)Oc1ccc(Cl)cc1
inactive: [11] 103 % of control | [14] 103 % of control | dose: 200.0 mg/kg/injection, schedule: Q01DX009 (ip), vehicle: saline 95 % of control

O=[N+]([O-])c1cc(Cl)ccc1N1CCCC1
inactive: [1] 89 % of control | [3] 99 % of control

Cc1ncc(C(O)(c2ccccc2)C(C)C)n1Cc1ccccc1 (stereo not drawn)
inactive: [15] 94 % of control | [1] 95 % of control and 96 % of control | [2] 95 % of control and 97 % of control | [7] 101 % of control | [16] 92 % of control | [3] 95 % of control and 108 % of control | [4] 93 % of control and 113 % of control | [8] 97 % of control | [17] 94 % of control | [5] 102 % of control | [6] 98 % of control and 103 % of control | [9] 101 % of control

CN(CCCl)c1ccc(C2N(Cc3ccccc3)c3ccccc3N2Cc2ccccc2)cc1
inactive: dose: 6.2 mg/kg/injection, schedule: Q01DX001 (ip), vehicle: carboxymethylcellulose (CMC) 94 % of control | dose: 12.5 mg/kg/injection, schedule: Q01DX001 (ip), vehicle: carboxymethylcellulose (CMC) 103 % of control

Cc1nc2cc(Cc3ccccc3)ccc2o1
inactive: dose: 100.0 mg/kg/injection, schedule: Q04DX003 (ip), vehicle: saline sonified 107 % of control | dose: 200.0 mg/kg/injection, schedule: Q04DX003 (ip), vehicle: saline sonified 105 % of control | dose: 400.0 mg/kg/injection, schedule: Q04DX003 (ip), vehicle: saline sonified 107 % of control

CC(C)C(CN)(CCCCN1CCCC1)c1cccc2ccccc12 (stereo not drawn)
inactive: dose: 12.5 mg/kg/injection, schedule: Q04DX003 (ip), vehicle: saline 96 % of control | [10] 93 % of control | [12] 96 % of control

NC(=O)N/N=C(\CBr)c1ccc(Br)cc1
inactive: [14] 93 % of control

Cc1ccc([N+](=O)[O-])cc1NC(=O)SCCOC(=O)COc1ccc(Cl)cc1
inactive: dose: 50.0 mg/kg/injection, schedule: Q01DX009 (ip), vehicle: saline with Tween-80 97 % of control | [1] 97 % of control and 106 % of control | [3] 103 % of control

Cc1ccc(C(C)C)c(OC(=O)Nc2cc(Cl)ccc2C)c1
inactive: [15] 98 % of control | [1] 100 % of control and 102 % of control | [2] 87 % of control and 88 % of control | [13] 92 % of control | [16] 95 % of control | [3] 102 % of control and 113 % of control | [4] 102 % of control and 89 % of control | dose: 200.0 mg/kg/injection, schedule: Q04DX003 (ip), vehicle: saline 92 % of control | [17] 93 % of control | [5] 100 % of control and 89 % of control | [6] 89 % of control and 91 % of control | dose: 400.0 mg/kg/injection, schedule: Q04DX003 (ip), vehicle: saline 92 % of control

CCc1ccc(/C=C\c2ccc(O)c(O)c2)[n+](C)c1
inactive: dose: 15.0 mg/kg/injection, schedule: Q01DX001 (ip), vehicle: saline 87 % of control | dose: 30.0 mg/kg/injection, schedule: Q01DX001 (ip), vehicle: saline 89 % of control

O=C(NCC(O)CNC(=O)Nc1ccc(C2=NCC(O)CN2)cc1)Nc1ccc(C2=NCC(O)CN2)cc1 (stereo not drawn)
inactive: dose: 25.0 mg/kg/injection, schedule: Q01DX Z (ip), vehicle: carboxymethylcellulose (CMC) 100 % of control | dose: 50.0 mg/kg/injection, schedule: Q01DX Z (ip), vehicle: carboxymethylcellulose (CMC) 108 % of control | dose: 100.0 mg/kg/injection, schedule: Q01DX Z (ip), vehicle: carboxymethylcellulose (CMC) 121 % of control

[O-]/[N+](C/[N+]([O-])=N\OCCCl)=N\OCCCl
inactive: dose: 100.0 mg/kg/injection, schedule: Q01DX001 (ip), vehicle: Klucel (hydroxypropylcellulose) (HPC) 91 % of control | dose: 200.0 mg/kg/injection, schedule: Q01DX001 (ip), vehicle: Klucel (hydroxypropylcellulose) (HPC) 91 % of control | dose: 400.0 mg/kg/injection, schedule: Q01DX001 (ip), vehicle: Klucel (hydroxypropylcellulose) (HPC) 91 % of control
